{
  "source": "patent US20160136229A1",
  "about": "“MATERIALS FOR POSITIVE CATHEPSIN B MODULATION AND METHODS OF USE FOR TREATING MILD COGNITIVE IMPAIRMENT (MCI), EARLY DEMENTIA, A-SYNUCLEINOPATHY, TRAUMATIC BRAIN INJURY, CARDIOMYOPATHY, EYE DISEASE AND SKIN DAMAGE” (University of North Carolina at Pembroke, priority 2013, published 2016)",
  "key": {"bacterial": {"tested_on": "bacterial", "assay": "Bacterial cytotoxicity test", "type": "cell-based", "settings": "tested at up to a 1000 times the IC50 of the toxin mitomycin C"}, "11-month Fischer rats": {"tested_on": "11-month Fischer rats", "assay": "Passive avoidance task in 11-month Fischer rats (model of MCI and early dementia)", "type": "in vivo, rat", "settings": "27 mg/kg daily", "experimental": "FIG. 2. The cathepsin B modulatory compound PADK improved learning and memory in 11-month Fischer rats, a model of mild cognitive impairment (MCI) and early dementia. A classic passive avoidance task to assess memory utilized a bi-sectioned apparatus consisting of a brightly-lit compartment and a dark compartment separated by a small door. […] In this figure, the female rats were injected daily with vehicle or 27 mg/kg PADK. Following each morning's injection, the rats were placed individually into the bright compartment and, after 10 s, the door was opened through which the rats typically entered immediately (3 min total time in apparatus/rat/day). Panel A: On the seventh injection day, latency time before entering the opened doorway was measured (pre-shock bars, mean±SEM), after which the door was closed to contain the animal in the dark compartment. A mild foot shock of 0.6 mA, 2 s duration, was then administered to the contained rat via the floor grid. Following the next day's injections, rats were again placed in the bright compartment and latency times measured after the door was opened (post-shock bars). […] Brains were removed after the behavior studies in order to assess cathepsin B levels.\nIn the 11-month Fischer rats, a model of MCI and early dementia, PADK improved passive avoidance memory. […]"}, "[1]": {"tested_on": "phosphorylated tau (pTau)", "assay": "pTau in Aβ42-treated rat hippocampal slice cultures (early tauopathy model)", "type": "cell-based", "settings": "5 μM for 4 days", "experimental": "(§1) FIG. 4. Enhancing lysosome efficiency with the cathepsin B modulator PADK leads to reductions of multiple types of proteinopathy-related accumulation events. […] Age-matched wild-type mice (wt) and 9-10-month mutant human APP mice, a model of early dementia, treated with or without PADK were assessed for the 4-kDa Δβ peptide, the active form of cathepsin B (act CB), and other proteins in hippocampal samples (C). Similar treatment groups used another APP mouse model at 20-22 months of age to measure clearance of APP carboxyterminal fragments APP-αCTF and APP-βCTF (D). Rat hippocampal slice cultures from the untreated control group (con) and slices treated with submicromolar Δβ42 (early tauopathy model) in the absence or presence of PADK (5 μM for 4 days) were assessed for phosphorylated tau (pTau) and other proteins (E). For a model of early α-synucleinopathy, human A53T α-synuclein transgenic mice, at 7 months old, were studied with or without PADK treatment and assessed for human α-synuclein (α-syn) in TX-100 extracts of hippocampus and for other proteins in hippocampal homogenates (F). Plotted data (±SEM) were compared to neighboring vehicle groups by unpaired t-tests: *p=0.02, **p<0.01, ***p<0.001. APPswind and APP-PS1 mice are described in Butler et al., (2011), the entire content of which is hereby incorporated herein by reference. […]"}, "[2]": {"tested_on": "GluR1, GluR4, synaptophysin, and synapsin II", "assay": "Synaptic marker immunoblot in hippocampal homogenates of A53T mice", "type": "in vivo, mouse", "settings": "A53T mice injected daily for 11 days", "experimental": "FIG. 7. The cathepsin B modulator PADK promotes synaptic integrity in the model of early α-synucleinopathy. The A53T transgenic and wildtype (wt) mice were injected daily with PADK or vehicle for 11 days. […] Mean GluR1 immunoreactivities±SEM are shown (B); post hoc test compared to vehicle-treated transgenics: *p<0.05.\nLysosomal enhancement also promoted protein clearance and synaptic protection in the Parkinson's disease transgenic mouse model expressing mutant A53T human α-synuclein (FIG. 4E). As in the other proteinopathy models, the reduction in human α-synuclein corresponded with active CatB levels that were increased 3-6 fold in brains of the PADK-treated A53T mice. […] The A53T mice were used at 7-8 months of age and behavioral studies confirmed the early α-synucleinopathy was pre-symptomatic, although a subtle change in anxiety behavior was detected (FIG. 5). PADK-mediated cathepsin B modulation was evident throughout the CNS, and the enhanced levels of the enzyme's active form corresponded with improved clearance of α-synuclein (FIG. 6) and recovery of several synaptic markers (FIG. 7A)."}, "mutant colonies": {"tested_on": "mutant colonies", "assay": "Ames test of genetic toxicity", "type": "cell-based", "settings": "in contrast to a mutagen tested in parallel"}, "APP-αCTF and APP-βCTF": {"tested_on": "APP-αCTF and APP-βCTF", "assay": "Clearance of APP carboxyterminal fragments in APP mouse model", "type": "in vivo", "settings": "PADK-treated transgenic mice, 20-22 months; correlated with augmented active CatB", "experimental": "as §1"}},
  "data": [
    {"smiles": "C[C@H](NC(=O)[C@H](Cc1ccccc1)NC(=O)OCc1ccccc1)C(=O)C=[N+]=[N-]", "note": "[PADK, N-carbobenzyloxy-L-phenylalanyl-L-alanyl-diazomethylketone]", "values": [
      {"measurement": "bacterial cytotoxicity", "setting": "bacterial", "result": "did not cause bacterial cytotoxicity"},
      {"measurement": "passive avoidance behavior (latency post-shock)", "setting": "11-month Fischer rats; day after 0.6 mA foot shock, vs vehicle, P=0.016", "result": "improve passive avoidance behavior"},
      {"measurement": "latency time before entering the opened doorway, pre-shock", "setting": "11-month Fischer rats; seventh injection day, vs vehicle-treated aged rats", "result": "no difference"},
      {"measurement": "pTau accumulation", "setting": "[1]", "result": "significant decrease"},
      {"measurement": "synaptic protection", "setting": "[1]", "result": "evidence of synaptic protection"},
      {"measurement": "levels of synaptic markers GluR1, GluR4, synaptophysin, and synapsin II", "setting": "[2]", "result": "improved levels"},
      {"measurement": "mutant colonies in the Ames test", "setting": "mutant colonies", "result": "did not produce mutant colonies"},
      {"measurement": "APP carboxy-terminal fragments (αCTF and βCTF)", "setting": "APP-αCTF and APP-βCTF", "result": "reductions"}
    ]}
  ]
}
